Key:
[1] = system: AsPC-1 pancreatic cancer cells; assay: Dark cytotoxicity, MTT assay, AsPC-1; type: cell-based; details: 3 h, no light, 72 h incubation
Description: (§1) Dark cytotoxicity: The culture of AsPC-1 pancreatic cancer cells were grown in RPMI-1640 medium (life technologies corporation, USA) supplemented with 10% heat-inactivated fetal bovine serum (life technologies corporation, USA) and 1 penicillin (life technologies corporation, USA), whereas MIA-paca2 and PANC-1 cells were grown in DMEM. The MTT assay was used to assess the cell viability of AsPC-1, MIA-paca2, PANC-1 cells. The cells attached to a 96-well plate (5,000 cells/well) were treated with 3.125 μM, 6.25 μM, 12.5 μM, 25 μM, 50 μM of photosensitizers, 7, 10, 13, 16, and 3 for 3 h. The cells were then incubated for 72 h at 37° C. in a 5% CO2 incubator and exposed to MTT [3-(4,5-dimethylthiazol-2-yl)-2,5-diphenyl-tetrazolium bromide] (250 μg/ml) for 3 h. The solution was changed to 200 μl of dimethylsulfoxide (DMSO, Sigma). After 30 min incubation and shaking in microplate mixer, the optical density (OD) was measured using a microplate reader (Thermo Fisher scientific, USA) at 570 nm wavelength. The cell viability was calculated using the following formula: Cell viability (%)=Mean optical density of treated wells/Mean optical density of control wells×100.

MIA-PaCa-2 [2] = assay: Dark cytotoxicity, MTT assay, MIA-PaCa-2; type: cell-based; details: 3 h, no light, 72 h incubation
Description: as §1

[3] = system: AsPC-1 pancreatic cancer cells; assay: Phototoxicity (PDT), MTT assay, AsPC-1; type: cell-based; details: for Cell viability, Phototoxicity against AsPC-1: 3 h, 50 mW 0.09 J/cm^2 laser 100 sec, 72 h incubation
Description: as §1, with “Phototoxicity: The culture” for “Dark cytotoxicity: The culture”, “USA) and 1% penicillin (life” for “USA) and 1 penicillin (life”, “3 h. The photosensitized cells were then irradiated with a 50 mW, 0.09 J/cm^2 laser for 100 sec. The cells” for “3 h. The cells”

PANC-1 = assay: Phototoxicity (PDT), MTT assay, PANC-1; type: cell-based; details: for Cell viability, Phototoxicity against PANC-1: 3 h, 50 mW 0.09 J/cm^2 laser 100 sec, 72 h incubation
Description: as §1, with “Phototoxicity: The culture” for “Dark cytotoxicity: The culture”, “USA) and 1% penicillin (life” for “USA) and 1 penicillin (life”, “3 h. The photosensitized cells were then irradiated with a 50 mW, 0.09 J/cm^2 laser for 100 sec. The cells” for “3 h. The cells”

MIA-PaCa-2 [4] = assay: Phototoxicity (PDT), MTT assay, MIA-PaCa-2; type: cell-based; details: for Cell viability, Phototoxicity against MIA-PaCa-2: 3 h, 50 mW 0.09 J/cm^2 laser 100 sec, 72 h incubation
Description: as §1, with “Phototoxicity: The culture” for “Dark cytotoxicity: The culture”, “USA) and 1% penicillin (life” for “USA) and 1 penicillin (life”, “3 h. The photosensitized cells were then irradiated with a 50 mW, 0.09 J/cm^2 laser for 100 sec. The cells” for “3 h. The cells”

[5] = Photophysical properties (absorption) in DMSO; type: physicochemical
Description: The photophysical properties of Ce6-curcumin conjugates and dimethyl ester ce6 were analyzed in dimethyl sulfoxide (DMSO). All the photosensitizers 7, 10, 13, and 16 (Formula IV) effectively absorbed the red light compared to dimethyl ester ce6. The major soret peak at λmax=405-408 nm and Q-bands at 667 nm for the photosensitizers 7, 10, 13, and 16 (Formula IV) and Q band peak at 656 for dimethyl ester ce6.

[6] = Dark cytotoxicity, MTT assay, AsPC-1; type: cell-based; details: human, AsPC-1 pancreatic cancer cells, 3 h, no light, 72 h incubation, read-out: Cell viability, Dark Cytotoxicity against AsPC-1
Description: as §1

[7] = Dark cytotoxicity, MTT assay, MIA-PaCa-2; type: cell-based; details: human, MIA-PaCa-2 cells, 3 h, no light, 72 h incubation, read-out: Cell viability, Dark cytotoxicity against MIA-PaCa-2
Description: as §1

[8] = 12.5 μM concentration, with light

C=Cc1c(C)c2cc3nc(c(CC(=O)OC)c4[nH]c(cc5nc(cc1[nH]2)C(C)=C5CC)c(C)c4C(=O)NCCCNC(=O)CCCC(=O)Oc1ccc(/C=C/C(=O)CC(=O)/C=C/c2ccc(O)c(OC)c2)cc1OC)C(CCC(=O)OC)C3C (stereo not shown) [Compound 7, Chlorine e6-curcumin Conjugate (7)]
Cell viability, Dark Cytotoxicity against AsPC-1 ([1]; 3.12 μM photosensitizer): 100.58%
Cell viability, Dark Cytotoxicity against AsPC-1 ([1]; 6.25 μM photosensitizer): 101.61%
Cell viability, Dark Cytotoxicity against AsPC-1 ([1]; 12.5 μM photosensitizer): 103.72%
Cell viability, Dark Cytotoxicity against AsPC-1 ([1]; 25 μM photosensitizer): 97.17%
Cell viability, Dark Cytotoxicity against AsPC-1 ([1]; 50 μM photosensitizer): 90.14%
Cell viability, Dark cytotoxicity against MIA-PaCa-2 (MIA-PaCa-2 [2]; 3.12 μM photosensitizer): 107.39%
Cell viability, Dark cytotoxicity against MIA-PaCa-2 (MIA-PaCa-2 [2]; 6.25 μM photosensitizer): 104.17%
Cell viability, Dark cytotoxicity against MIA-PaCa-2 (MIA-PaCa-2 [2]; 12.5 μM photosensitizer): 101.89%
Cell viability, Dark cytotoxicity against MIA-PaCa-2 (MIA-PaCa-2 [2]; 25 μM photosensitizer): 99.23%
Cell viability, Dark cytotoxicity against MIA-PaCa-2 (MIA-PaCa-2 [2]; 50 μM photosensitizer): 88.84%
Cell viability, Phototoxicity against AsPC-1 ([3]; 3.12 μM photosensitizer): 85.97%
Cell viability, Phototoxicity against AsPC-1 ([3]; 6.25 μM photosensitizer): 43.03%
Inhibition of AsPC-1 (PDT) [3, 8]: 75%
Cell viability, Phototoxicity against AsPC-1 ([3]; 12.5 μM photosensitizer): 24.03%
Cell viability, Phototoxicity against AsPC-1 ([3]; 25 μM photosensitizer): 10.35%
Cell viability, Phototoxicity against AsPC-1 ([3]; 50 μM photosensitizer): 6.63%
Cell viability, Phototoxicity against PANC-1 (PANC-1; 3.12 μM photosensitizer): 66.14%
Cell viability, Phototoxicity against PANC-1 (PANC-1; 6.25 μM photosensitizer): 31.56%
Inhibition of PANC-1 (PDT) (PANC-1; [8]): 88%
Cell viability, Phototoxicity against PANC-1 (PANC-1; 12.5 μM photosensitizer): 12.33%
Cell viability, Phototoxicity against PANC-1 (PANC-1; 25 μM photosensitizer): 11.58%
Cell viability, Phototoxicity against PANC-1 (PANC-1; 50 μM photosensitizer): 11.87%
Cell viability, Phototoxicity against MIA-PaCa-2 (MIA-PaCa-2 [4]; 3.12 μM photosensitizer): 69.70%
Cell viability, Phototoxicity against MIA-PaCa-2 (MIA-PaCa-2 [4]; 6.25 μM photosensitizer): 12.35%
Inhibition of MIA-PaCa-2 (PDT) (MIA-PaCa-2 [4]; [8]): 94%
Cell viability, Phototoxicity against MIA-PaCa-2 (MIA-PaCa-2 [4]; 12.5 μM photosensitizer): 6.03%
Cell viability, Phototoxicity against MIA-PaCa-2 (MIA-PaCa-2 [4]; 25 μM photosensitizer): 5.18%
Cell viability, Phototoxicity against MIA-PaCa-2 (MIA-PaCa-2 [4]; 50 μM photosensitizer): 4.99%
Q-band peak [5]: 667 nm

C=Cc1c(C)c2cc3nc(c(CC(=O)OC)c4[nH]c(cc5nc(cc1[nH]2)C(C)=C5CC)c(C)c4C(=O)NCCCOCCOCCOCCCNC(=O)CCCC(=O)Oc1ccc(/C=C/C(=O)CC(=O)/C=C/c2ccc(O)c(OC)c2)cc1OC)[C@@H](CCC(=O)OC)[C@@H]3C [Compound 16, Chlorine e6-curcumin Conjugate (16)]
viability at 3.12 μM ([6]; 3.12 μM photosensitizer): 99.9%
viability at 6.25 μM ([6]; 6.25 μM photosensitizer): 103%
viability at 12.5 μM ([6]; 12.5 μM photosensitizer): 103%
viability at 25 μM ([6]; 25 μM photosensitizer): 80.4%
viability at 50 μM ([6]; 50 μM photosensitizer): 84.1%
viability at 3.12 μM ([7]; 3.12 μM photosensitizer): 122%
viability at 6.25 μM ([7]; 6.25 μM photosensitizer): 121%
viability at 12.5 μM ([7]; 12.5 μM photosensitizer): 113%
viability at 25 μM ([7]; 25 μM photosensitizer): 101%
viability at 50 μM ([7]; 50 μM photosensitizer): 72.8%
Cell viability, Phototoxicity against AsPC-1 ([3]; 3.12 μM photosensitizer): 87.29%
Cell viability, Phototoxicity against AsPC-1 ([3]; 6.25 μM photosensitizer): 45.79%
Cell viability, Phototoxicity against AsPC-1 ([3]; 12.5 μM photosensitizer): 32.67%
Cell viability, Phototoxicity against AsPC-1 ([3]; 25 μM photosensitizer): 25.46%
Cell viability, Phototoxicity against AsPC-1 ([3]; 50 μM photosensitizer): 27.83%
inhibition at 25 µM ([3]; Homo sapiens, ASPC1, 25 μM concentration, with light): 75%
Cell viability, Phototoxicity against PANC-1 (PANC-1; 3.12 μM photosensitizer): 97.36%
Cell viability, Phototoxicity against PANC-1 (PANC-1; 6.25 μM photosensitizer): 89.19%
Cell viability, Phototoxicity against PANC-1 (PANC-1; 12.5 μM photosensitizer): 59.07%
Cell viability, Phototoxicity against PANC-1 (PANC-1; 25 μM photosensitizer): 24.07%
Cell viability, Phototoxicity against PANC-1 (PANC-1; 50 μM photosensitizer): 20.24%
inhibition at 25 µM (PANC-1; Homo sapiens, PANC-1, 25 μM concentration, with light): 76%
Cell viability, Phototoxicity against MIA-PaCa-2 (MIA-PaCa-2 [4]; 3.12 μM photosensitizer): 80.67%
Cell viability, Phototoxicity against MIA-PaCa-2 (MIA-PaCa-2 [4]; 6.25 μM photosensitizer): 17.62%
Cell viability, Phototoxicity against MIA-PaCa-2 (MIA-PaCa-2 [4]; 12.5 μM photosensitizer): 9.49%
Cell viability, Phototoxicity against MIA-PaCa-2 (MIA-PaCa-2 [4]; 25 μM photosensitizer): 8.03%
Cell viability, Phototoxicity against MIA-PaCa-2 (MIA-PaCa-2 [4]; 50 μM photosensitizer): 9.67%
inhibition at 25 µM (MIA-PaCa-2 [4]; Homo sapiens, MIA PaCa-2, 25 μM concentration, with light): 92%
Q-band peak [5]: 667 nm
